The text below walks through data of patent US20200087248A1, “Fluoroallylamine Derivative And Use Thereof” (SICHUAN KELUN-BIOTECH BIOPHARMACEUTICAL CO., LTD., priority 2017, published 2020).

Structures are written as SMILES. Where a name gives a salt, the structure may show the parent alone. Read-outs that look alike come from different tables or passages of the source.

Data set [1] can be described thus: Stability in liver microsomes, human. It counts as in vitro ADME. The protocol:
Stability of Liver Microsomes
Formulation of a compound reservation solution: the test compound, diclofenac acid, testosterone and propafenone were weighted in appropriate amounts, and calibrated by adding about 1 mL of DMSO to provide a 10 mM reservation solution, then stored in a 4° C. refrigerator;
Formulation of a compound working solution: 10 μL of the reservation solution were added to 990 μL acetonitrile-water (1:1) to provide a middle solution having a concentration of 100 μM, and 120 μL of the middle solution is further diluted with 2880 μL PBS to provide a 4 μM working solution; […]
After being incubated for a certain period of time, an equivalent volume of cooled acetonitrile (4° C.) was added to terminate the reaction, and LC-MS/MS was used to determine the concentrations of the compound after being incubated in various liver microsomes for different time periods. With the incubation time as the horizontal ordinate and the natural logarithm of the percentages of the remained compound at each time point as the longitudinal coordinate, a diagram was plotted, wherein the slope was the velocity constant (Ke), and the half-life (T1/2) and clearance rate (CLliver) of the compound were calculated according to the following equation to evaluate the staiblity of the compound in the liver microsomes. […]
Background: Liver microsomes are vesicles of endoplasmic reticulum, rich in cytochrome P450 enzymes.

Data set [2] addresses T1, VAP-1 in abdominal fat of mice (Mus musculus, UniProt O70423).
T1 construct: abdominal fat was collected and homogenized; from tissue; host or cells: abdominal fat of BALBc mice (homogenate supernatant)
T1 sequence (O70423 1-765): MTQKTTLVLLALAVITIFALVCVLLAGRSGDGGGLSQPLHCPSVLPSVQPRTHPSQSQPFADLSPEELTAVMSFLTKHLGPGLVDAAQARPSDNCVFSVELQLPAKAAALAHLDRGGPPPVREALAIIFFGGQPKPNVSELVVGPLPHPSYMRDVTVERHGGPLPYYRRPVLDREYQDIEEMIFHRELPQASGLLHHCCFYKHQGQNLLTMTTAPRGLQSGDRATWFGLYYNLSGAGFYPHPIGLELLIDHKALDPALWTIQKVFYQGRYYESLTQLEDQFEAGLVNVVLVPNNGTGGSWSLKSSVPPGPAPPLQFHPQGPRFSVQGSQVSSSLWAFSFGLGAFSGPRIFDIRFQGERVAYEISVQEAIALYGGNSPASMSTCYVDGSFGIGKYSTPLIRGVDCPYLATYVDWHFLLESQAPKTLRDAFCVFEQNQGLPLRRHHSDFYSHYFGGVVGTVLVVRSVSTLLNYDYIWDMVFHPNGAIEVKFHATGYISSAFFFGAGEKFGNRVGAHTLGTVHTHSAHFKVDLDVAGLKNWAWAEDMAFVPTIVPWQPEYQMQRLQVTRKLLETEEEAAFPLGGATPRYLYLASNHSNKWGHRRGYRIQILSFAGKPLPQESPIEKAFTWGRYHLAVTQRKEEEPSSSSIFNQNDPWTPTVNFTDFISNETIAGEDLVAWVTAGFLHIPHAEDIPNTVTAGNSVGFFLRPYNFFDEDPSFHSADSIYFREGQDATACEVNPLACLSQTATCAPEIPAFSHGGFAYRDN
Briefly: Inhibition of VAP-1 enzymatic activity at different dose and time conditions (ex-vivo). The following applies: for Inhibition rate against the enzymatic activity of VAP-1 in abdominal fat of mice: hydrochloride; for inhibition at 0.5 mg/kg / inhibition at 3 mg/kg: mouse, po, read-out: Inhibition rate against the enzymatic activity of VAP-1 in abdominal fat of mice. It counts as in vivo, BALBc mice. The protocol: Inhibition Experiment Against the Enzymatic Activity at Different Does and Time Conditions (ex-vivo)
Tissue homogenate buffer solution (20 mM HEPES, pH 7.2, 1 mM EDTA, 250 mM sucrose, PMSF 0.2 mM)
Reaction buffer solution: 50 mM PBS, pH 7.4
Test kit: Amplex® Red Monoamine Oxidase Assay, Manufacturer: ThermoFisher
BALBc mice were orally administrated with different doses (0.5 mg/kg, 3 mg/kg) of the test compound, and the vehicle group was used as the control group. Abdominal fat was collected at 6 hrs, 10 hrs, 24 hrs respectively, and homogenized with a pre-cooled homogenate buffer solution, and thereafter, the supernatant was collected and stored for use.
A test sample was diluted with the reaction buffer solution, and respectively added with the inhibition solution A 1 μM Clorgyline+1 μM pargylin, to inhibit the activities of MAO-A and MAO-B, and the inhibition solution B: 1 μM Clorgyline+1 μM Pargylin+1 μM Mofegiline as the Wank control, and after being incubated at room temperature, 500 μM benzylamine hydrochloride, 1 U/mL HRP and 200 μM Amplex Red reagent were added to start the reaction. By referring to the method in “Experiment of inhibiting the enzymatic activity of VAP-1”, the relative activities of each dose groups were calculated, wherein ratio of the fluorescent signal to reaction time in the linear range is the reaction rate, and the vehicle group is the positive control, thereby to study the inhibition of the compound against the enzymatic activity of VAP-1 in abdominal fat of mice.

As usually defined, the inhibition is the change of the read-out against control, counted positive when it falls. As for `CC1(C)Cc2cc(OC/C(=C/F)CN)ccc2C(=O)N1` [HC38-E, (E)-6-((2-(aminomethyl)-3-fluoroallyl)oxy)-3,3-dimethyl-3,4-dihydroisoquinolin-1(2H)-one hydrochloride], the “T1/2 in liver microsomes” value in data set [1] is “long half-life”. Besides, the half-life in data set [1] (liver microsomes, read-out: T1/2 in liver microsomes) is 44.6 h. For the same molecule, the “Inhibition rate against the enzymatic activity of VAP-1 in abdominal fat of mice” value came to 95.8 ± 3.6% in data set [2] (0.5 mg/kg oral, 6 hours) and 95.3 ± 1.9% in data set [2] (3.0 mg/kg oral, 10 hours). Moreover, the inhibition at 0.5 mg/kg in data set [2] (0.5 mg/kg oral, 6 hours) was approximately 95%; in data set [2] (0.5 mg/kg oral, 10 hours), 90.3 ± 3.2%; in data set [2] (0.5 mg/kg oral, 24 hours) it was 68.1 ± 7.4%. The inhibition at 3 mg/kg was 96.4 ± 5.6% in data set [2] (3.0 mg/kg oral, 6 hours); approximately 95% in data set [2] (3.0 mg/kg oral, 10 hours); 78 ± 9.3% in data set [2] (3.0 mg/kg oral, 24 hours).
